# Test results from publication PMC11238919 (Virulence, 2024).
# Several values for one entry are separate records, joined by “and”; a condition that tells them apart may be missing. Equal values may be shown once. Where no end group is shown, it is not given here. [ ]: non-standard residue; d: D form. pY = N[C@@H](Cc1ccc(OP(=O)(O)O)cc1)C(=O)O
# T1: SHIP2-SH2 domain (Homo sapiens, UniProt O15357)
# T1 sequence (O15357 21-117 limits assumed): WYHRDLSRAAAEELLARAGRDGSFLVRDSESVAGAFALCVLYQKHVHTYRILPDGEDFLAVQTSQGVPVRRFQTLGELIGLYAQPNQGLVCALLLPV
# T2: His-tagged SHIP2-SH2 domain (UniProt O15357 21-117)
# T2 sequence (looked up): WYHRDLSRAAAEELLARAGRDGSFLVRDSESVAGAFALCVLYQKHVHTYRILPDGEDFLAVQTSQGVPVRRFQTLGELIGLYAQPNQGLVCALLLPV
# Columns and labels:
# SHIP2-SH2 domain = biological target: T1, SHIP2-SH2 domain; assay: SPR affinity of EPIpYA peptides to immobilized SHIP2-SH2 domain; format: binding; conditions: EPIpYA-D versus EPIpYA-C
# [1] = tested on: hummingbird phenotype of infected cells; assay: Hummingbird phenotype of infected cells; format: cell-based; conditions: SHP099 10 µM added 48 h before infection
# SHIP2 = conditions: ref [15]; cited from earlier work
# SHP2 = conditions: ref [10]; cited from earlier work
# [2] = biological target: T2, His-tagged SHIP2-SH2 domain; assay: SPR
molecule,measurement,setting,value
CC[C@H](C)[C@H](NC(=O)[C@@H](NC(=O)[C@H](C)NC(=O)[C@H](Cc1ccc(OP(=O)(O)O)cc1)NC(=O)[C@@H](NC(=O)[C@@H]1CCCN1C(=O)[C@H](CCC(=O)O)NC(=O)[C@@H]1CCCN1C(=O)[C@H](CO)NC(=O)[C@H](C)N)[C@@H](C)CC)[C@@H](C)O)C(=O)N[C@@H](CC(=O)O)C(=O)N[C@@H](Cc1ccccc1)C(=O)N[C@@H](CC(=O)O)C(=O)O [EPIpYA-D],KD approximately 10 times lower than that of EPIpYA-C,SHIP2-SH2 domain,approximately 10 times
CC1(N)CCN(c2cnc(-c3cccc(Cl)c3Cl)c(N)n2)CC1 [SHP099],differences in morphological changes between strain groups,[1],the differences in the morphological changes between the groups were not obvious
EPIYA-C: EPIYA-C motif of CagA^W (literature),"binding to SHIP2, EPIYA-C versus EPIYA-D",SHIP2,binds slightly strongly to EPIYA-C than EPIYA-D
EPIYA-D: CagA^E-specific EPIYA-D segment (literature),"binding to SHP2, EPIYA-D versus EPIYA-C",SHP2,binds to SHP2 more strongly than the EPIYA-C segment
ASPEPI[pY]ATIDFD [tyrosine-phosphorylated EPIYA-D peptide (ASPEPIpYATIDFD)],Kd,[2],890 nM and 896 nM
VSPEPI[pY]ATIDDL [tyrosine-phosphorylated EPIYA-C peptide (VSPEPIpYATIDDL)],Kd,[2],8350 nM
